{"source": "paper PMC6941654", "about": "“Glucosyltransferase CsUGT78A14 Regulates Flavonols Accumulation and Reactive Oxygen Species Scavenging in Response to Cold Stress in Camellia sinensis” (Frontiers in Plant Science, 2019)", "target": "T1, CsUGT78A14-1 (Camellia sinensis, UniProt A0A109P632)", "T1 construct": "gene UGT78A14; Ala438 allele", "T1 sequence (A0A109P632 entry or part of it)": "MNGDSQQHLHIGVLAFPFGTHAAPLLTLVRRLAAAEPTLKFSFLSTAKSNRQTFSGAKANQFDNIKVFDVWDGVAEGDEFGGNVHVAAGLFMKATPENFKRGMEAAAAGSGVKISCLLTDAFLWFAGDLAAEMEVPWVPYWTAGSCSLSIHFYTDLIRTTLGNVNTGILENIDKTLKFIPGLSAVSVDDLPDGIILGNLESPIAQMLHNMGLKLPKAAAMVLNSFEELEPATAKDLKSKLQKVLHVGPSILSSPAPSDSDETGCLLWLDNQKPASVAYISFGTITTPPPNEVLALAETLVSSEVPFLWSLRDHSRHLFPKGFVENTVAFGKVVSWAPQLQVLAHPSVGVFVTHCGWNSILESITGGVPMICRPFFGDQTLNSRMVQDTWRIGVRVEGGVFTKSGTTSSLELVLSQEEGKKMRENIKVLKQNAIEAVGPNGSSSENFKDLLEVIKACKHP", "test": "UDP-Glo glycosyltransferase assay, steady-state kinetics", "assay_type": "biochemical", "conditions": "co-substrate UDP-glucose (Glc row), donor fixed at 100 μM; acceptor varied 1-500 μM; optimized pH and temperature", "text": "UDP-Glo glycosyltransferase assay, steady-state kinetics on CsUGT78A14-1"}
{"smiles": "O=c1c(O)c(-c2ccc(O)cc2)oc2cc(O)cc(O)c12", "note": "[kaempferol]", "values": [{"measurement": "Km", "result": 27.1, "unit": "µM"}]}
